What was measured:
[1] = test system: A431 cells; test: Apoptosis in A431 cells; format: cell-based
[2] = test system: HaCat cells; test: Apoptosis and necrosis by fluorescence microscopy; format: cell-based, human
Protocol: Estimation of apoptosis and necrosis was analyzed using fluorescence microscopy as previously described (Harel et al, 2002). Briefly, HaCat cells were cultured on glass slides and exposed to various concentration of NA (5, 10, 20 and 50 mM). After 72 h the cells were stained with the DNA binding dyes Hoechst 33342 and propidium iodide. Viable cells were identified by intact nuclei and their blue fluorescence, necrotic cells by intact nuclei and red fluorescence, and cells in early or late phase of apoptosis, by fragmented nuclei and blue or red fluorescence. At least one thousand cells were counted for each treatment.

[3] = test system: HaCat cells; test: Growth curve and mitotic activity; format: cell-based, human; details: 10 mM NA
Protocol: Growth curve and mitotic activity: 2×10^4 cells per ml were seeded in 24-well tissue culture plates and incubated without or with 10 mM NA. The cells were detached by trypsinization at different times (48 h-168 h) following passage and counted using a haemocytometer in tetra-aliquots. For estimation of mitotic activity the cells were cultured on glass coverslips into Petri dishes. After 72 h incubation with or without 10 mM NA the cells were fixed with methanol, stained with Giemsa stain and analyzed by light microscopy. Frequency of mitotic cells at different stages of mitotic cycle (pro-, meta-, ana- and telophases) was calculated. At least 1000 cells were counted for each experiment.

[4] = test system: HaCat cells; test: Cell cycle parameters by flow cytometry; format: cell-based, human; details: NA 72 h, dose dependent
Protocol: Determination of apoptosis and cell cycle parameters was performed by flow cytometry. Cells were seeded in 25 cm2 tissue culture flasks and cultured for 48 h, and then they were exposed to 5, 10 and 20 mM NA for 72 h. Flow cytometry was performed on nuclei prepared with a detergent-trypsin method and stained with propidium iodide (Vindelov et al, 1983).

[5] = test system: keratin 10 (K10); test: Indirect immunofluorescence, keratin 10 expression; format: cell-based, human; details: 72 hours
Protocol: (§1) Effects of NA and or calcipotriol on early (keratin k10 expression) and late (involucrin expression) differentiation processes in HaCat cells were estimated by indirect immunofluorescence.
In brief, 2×10^4 cells/ml were seeded on glass coverslips into Petri dishes with 0, 5, 10 and 20 mM NA or calcipotriol. After 72 hours of incubation, cells on the glass coverslips were washed with PBS, fixed by ice-cold mixture of methanol:acetone (1:1) and incubated at −20° C. for 10 minutes. Fixed cells were washed in PBS and incubated with blocking buffer (1% BSA in PBS) for 10 minutes, to minimize non-specific absorption of the primary antibodies to the coverslips. Thereafter, the cells were incubated for 1 hour with primary monoclonal antibodies (Keratin 10 expression was detected by antihuman mouse monoclonal antibody, at 1/50 final dilution; Involucrin expression was detected by antihuman involucrin mouse monoclonal antibody at 1/100 final dilution), at 37° C. hour in a humidified chamber. Exhaustive, PBS-washed cells were incubated with fluorophor conjugated goat anti-mouse IgG, at 1/50 final dilution, for 30 minutes at room temperature. The slides were viewed under a Zeiss microscope (Axioskop-2) equipped with epifluorescence optics and the appropriate filters to avoid cross-channel contamination. […] On each slide, at least 500-1000 cells were scored.

[6] = test system: benign and malignant epidermal cells; test: Differentiation markers in benign and malignant epidermal cells; format: cell-based
Protocol: (§2) Certain in vitro assays based on keratinocyte cell culture were performed to test NA and the combination of NA and calcipotriol. The experimental design has been described in PCT Patent Publication WO 01/51051, of some of the inventors of the present application.
(§3) Cornified Envelope Formation: Late differentiation processes in HaCat cells treated with NA and or calcipotriol were measured by determining the cornified cell envelope formation, according to the procedures described in Sun and Green (1976) and PCT publication WO 01/51051.
as §1

[7] = test system: A431; test: Proliferation assay, A431 cells; format: cell-based; details: NA in pharmacological concentrations, dose dependent
Protocol: as §2

[8] = test system: KM12; test: Proliferation assay, KM12 cells; format: cell-based; details: NA in pharmacological concentrations, dose dependent
[9] = test system: human primary keratinocytes; test: Proliferation assay (MTT method), human primary keratinocytes; format: cell-based; details: NA in pharmacological concentrations, dose dependent
Protocol: The antiproliferative activity of calcipotriol and nicotinamide was tested in two model systems: the first a spontaneously immortalized human keratinocyte, which is referred to herein as “HaCat cells” or “HaCat keratinocytes”, and serves as a model for highly proliferative epidermis, such as, but not limited to, psoriatic epidermis (Okenfels et al, 1998), and as a model for effects of external modulators of epidermal differentiation (Paramio, et al., 1997). The second system includes rapidly proliferating human keratinocytes, which are referred to herein as “cultured human epidermal keratinocytes”, and serves as a model for detecting antiproliferative agents in the treatment of psoriasis (Nikoloff, et al., 1988). Human Epidermal Keratinocytes (passages 3-6), obtained from normal face-lift surgery, were cultivated in serum-free KGM®-2 BulletKit® (Clonetics, USA) medium with low calcium for accelerated proliferation of the keratinocytes. The viability and/or proliferation of HaCat cells and Cultured Human Epidermal Keratinocytes, following treatment with various concentrations of calcipotriol, nicotinamide (NA) or a combination thereof was determined by the MTT assay, according manufacturer in 96-well microtiter plates.

[10] = test system: HaCat keratinocytes; test: Long-term NA treatment of HaCat keratinocytes, oxidative stress; format: cell-based, human; details: long-term treatment with NA
Text: Other long-term cultures of cells with other agents are similarly obtained by cultivating HaCat cells, for a prolonged period of time, in medium supplemented with combinations of NA, vitamin D and derivatives thereof and vitamin A.

[11] = test system: involucrin; test: Indirect immunofluorescence, involucrin expression; format: cell-based, human
Protocol: as §1
In brief, 2×10^4 cells/ml were seeded on glass coverslips into Petri dishes with 0, 5, 10 and 20 mM NA or calcipotriol. After 72 hours of incubation, cells on the glass coverslips were washed with PBS, fixed by ice-cold mixture of methanol:acetone (1:1) and incubated at −20° C. for 10 minutes. Fixed cells were washed in PBS and incubated with blocking buffer (1% BSA in PBS) for 10 minutes, to minimize non-specific absorption of the primary antibodies to the coverslips. Thereafter, the cells were incubated for 1 hour with primary monoclonal antibodies (Keratin 10 expression was detected by antihuman mouse monoclonal antibody, at 1/50 final dilution; Involucrin expression was detected by antihuman involucrin mouse monoclonal antibody at 1/100 final dilution), at 37° C. hour in a humidified chamber. Exhaustive, PBS-washed cells were incubated with fluorophor conjugated goat anti-mouse IgG, at 1/50 final dilution, for 30 minutes at room temperature. The slides were viewed under a Zeiss microscope (Axioskop-2) equipped with epifluorescence optics and the appropriate filters to avoid cross-channel contamination. The level of keratin 10 and involucrin expression was estimated by counting the positive cells relative to the total cell number. On each slide, at least 500-1000 cells were scored.

[12] = test system: HaCat cells; test: Proliferation assay (MTT method), HaCat cells; format: cell-based, human
Protocol: The antiproliferative activity of calcipotriol and nicotinamide was tested in two model systems: the first a spontaneously immortalized human keratinocyte, which is referred to herein as “HaCat cells” or “HaCat keratinocytes”, and serves as a model for highly proliferative epidermis, such as, but not limited to, psoriatic epidermis (Okenfels et al, 1998), and as a model for effects of external modulators of epidermal differentiation (Paramio, et al., 1997). The second system includes rapidly proliferating human keratinocytes, which are referred to herein as “cultured human epidermal keratinocytes”, and serves as a model for detecting antiproliferative agents in the treatment of psoriasis (Nikoloff, et al., 1988). These models have been used, according to the present invention, to test the antiproliferative efficacy of agents described herein. […] The viability and/or proliferation of HaCat cells and Cultured Human Epidermal Keratinocytes, following treatment with various concentrations of calcipotriol, nicotinamide (NA) or a combination thereof was determined by the MTT assay, according manufacturer in 96-well microtiter plates.

[13] = test system: HaCat cells; test: Cornified envelope formation; format: cell-based, human
Protocol: as §3

[14] = test system: PARP; test: Immunoblot analysis of PARP expression; format: cell-based, human
Protocol: Immunoblot analysis of PARP expression: immune complexes were detected by incubation with secondary anti-mouse alkaline phosphatase conjugated antibody AP124A (dilution 1:5000) followed by developing with BCIP/NBT color substrate.

[15] = Skin permeation, Franz diffusion cell; format: in vitro ADME, porcine; details: formulations CP and CPNA, 12 hours; QL 1.3 ng/mL
Protocol: Three formulations were prepared. The first comprised Nicotinamide (NA, 2.1 mg/g), the second Calcipotriol (CP, 50 μg/g) and the third, a combination of Calcipotriol (50 μg/g) and Nicotinamide (2.1 mg/g)(CPNA).
The Franz cell assembly and porcine ear skin are used for measuring permeation of drugs through the skin in vitro from various systems and dosage forms (Dick et al. 1992; Simon, et al. 2000; Touitou et al. 1998; Chien 1992). The experiments were carried out in vitro using the Franz diffusion cell assembly and full-thickness skin from porcine ear. The diffusion cells are made from an inert material and the assembly allows for good receiver-fluid mixture and temperature control.
Porcine ear skin was excised from the outer part of the ear and separated from the underlying cartilage. The skin was stored frozen at −20° C. until use, always less than one week. […] A quantity of 100 mg test formulation was placed on 1.77 cm^2 skin in the donor compartment. […]
The experiments were run non-occluded for 12 hours. […] The samples were analyzed for Nicotinamide and Calcipotriol concentrations by HPLC as further described. […]
HPLC assays: The HPLC assays of nicotinamide and calcipotriol were carried as follows: Nicotinamide was analyzed in a Waters Alliance 2795 LC and Quattro Micro™ HPL chromotograph LC-MS system with Hypersil BDS C18, 3 μm, 150×2.1 mm (CN 28103-152130, batch #4796) column. […]

NC(=O)c1cccnc1 [NA, Nicotinamide]
apoptotic death in A431 cells [1]: does not induce apoptotic death | apoptotic death in HaCat cells (summary statement) [2]: does not induce apoptotic death | apoptogenic effect ([2]; 20 mM and 50 mM NA, 72 h): significant apoptogenic effect | cells in stage of early apoptosis ([2]; 50 mM NA): 9% | effected cells with signs of late apoptosis ([2]; 50 mM NA): about 91% | necrotic cell death ([2]; all tested NA concentrations (5-50 mM)): no tested concentration of NA induced necrotic cell death | growth curve ([3]; 48-168 hours): growth retardation | percentage of mitotic cells, times lower compared to untreated ([3]; 72 h): about 2.5 times | frequency of cells in G0-G1, S and G2-M phases [4]: reduction of the cell number in S and G2-M-phases | K10 expression compared to control cells ([5]; 5 mM to 10 mM NA): no effect | stimulation of K10 expression ([5]; 20 mM NA): 3 fold | differentiation processes: K10, Involucrin, enveloped cornified cell formation markers [6]: promotes the differentiation processes | Proliferation of A431 [7]: significantly inhibited | Proliferation of KM12 [8]: significantly inhibited | Proliferation of human primary keratinocytes [9]: significantly inhibited | anti-oxidative enzymes (glutathione peroxidase and catalase) [10]: high levels of anti-oxidative enzymes | protection to oxidative stress (hydrogen peroxide) [10]: high level of protection to oxidative stress | increase of involucrin expression vs control ([11]; 5 mM NA): about 2 times | level of involucrin expression (positive cells) ([11]; 5 mM NA, control 6.0±1.22%): 11.2±1.68% | frequency of involucrin positive cells ([11]; 10 mM NA): 11.0±1.13% | frequency of involucrin positive cells ([11]; 20 mM NA): 15.1±3.93% | rate of HaCat cell proliferation ([12]; 0.5-5 mM NA, 72 h): did not change the rate of HaCat cell proliferation | Proliferation of HaCat keratinocytes ([12]; NA in pharmacological concentrations, dose dependent): significantly inhibited | frequency of basal and cornified envelope cells ([13]; 5 mM or 10 mM NA): no statistically significant effect | cornified envelope cell formation ([13]; 15 mM NA): increased | level of basal cells ([13]; 15 mM NA, untreated 58.6±10.24%): 25.6±5.76% | frequency of basal cells, of total cell population ([13]; 20 mM NA): about 15% | frequency of envelope cornified cells, of total cell population ([13]; 20 mM NA, untreated 4.4±2.78%): about 15% | PARP expression (Western blot) ([14]; 10 mM or 20 mM NA): express a basal level of undegraded 116 kDa PARP full protein | PARP expression (Western blot) ([14]; 50 mM NA, 85 kDa cleavage fragment appears): induced degradation of PARP

C=C1/C(=C\C=C2/CCC[C@]3(C)[C@@H]([C@H](C)/C=C/[C@@H](O)C4CC4)CC[C@@H]23)C[C@@H](O)C[C@@H]1O [calcipotriol, Calcipotriol]
calcipotriol in the receiver compartment [15]: No calcipotriol was detected
